Laboratory results reported in paper PMC2585982 (Toxicology and applied pharmacology, 2008).

How the values were obtained:
[1] = test system: P450 3A11; assay: Liver microsomal P450 3A activity; assay type: in vivo, mice; conditions: for Increase in P450 3A activity (testosterone), liver microsomes: C57BL/6 mice, 100 mg/kg p.o. 3 days, vs corn oil
[2] = test system: P450 1A1/1A2; assay: Western blot of liver microsomes, P450 1A1/1A2 protein expression; conditions: C57BL/6 mice, 100 mg/kg p.o. 3 days
[3] = test system: GST (DCNB, GST μ); assay: Liver cytosolic GST activity, DCNB as substrate, after oral dosing of mice; assay type: in vivo; conditions: C57BL/6 mice, 100 mg/kg p.o. 3 days, vs corn oil
[4] = test system: P450 3A11; assay: Western blot of liver microsomes, P450 3A11 protein expression; conditions: C57BL/6 mice, 100 mg/kg p.o. 3 days
[5] = test system: P450 2B10; assay: Western blot of liver microsomes, P450 2B10 protein expression; conditions: C57BL/6 mice, 100 mg/kg p.o. 3 days
[6] = test system: NQO; assay: Liver cytosolic NQO activity; assay type: in vivo, mice; conditions: vs corn oil; for Increase in NQO activity, liver cytosol: C57BL/6 mice, 100 mg/kg p.o. 3 days
[7] = test system: P450s 2B9/10; assay: Liver microsomal P450 2B activity; assay type: in vivo, mice; conditions: mouse, in vivo
[8] = test system: P450 2B; conditions: cited from earlier work
[9] = test system: GSTπ; assay: Western blot of liver cytosol, GSTπ protein expression; assay type: in vivo; conditions: SENCAR mice, 35, 70, 150 mg/kg p.o.
[10] = test system: GST (cumene hydroperoxide); assay: Liver GST activity, cumene hydroperoxide as substrate, after oral dosing of mice; assay type: in vivo; conditions: female SENCAR mice, even at the highest doses, data not shown
[11] = test system: P450s 2B9/10; conditions: mouse, in vivo; cited from earlier work
[12] = test system: GSTα; assay: Western blot of liver cytosol, GSTα protein expression; assay type: in vivo; conditions: SENCAR mice, 35, 70, 150 mg/kg p.o., particularly at the highest doses
[13] = test system: P450s 1A1/2; assay: Liver microsomal P450 1A activity; assay type: in vivo, mice; conditions: mouse, in vivo
[14] = test system: GSTμ; assay: Western blot of liver cytosol, GSTμ protein expression; assay type: in vivo, mice; conditions: SENCAR mice, 35, 70, 150 mg/kg p.o.
[15] = test system: P450 1A1/1A2; conditions: mouse, in vivo
[16] = test system: P450 2B10; conditions: mouse, in vivo

Row | P450 1A1/1A2 protein expression (western blot densitometry) [2] | P450 3A11 protein expression (western blot densitometry) [4] | P450 2B10 protein expression (western blot densitometry) [5] | SMILES | Increase in P450 3A activity (testosterone), liver microsomes [1] | GST activity using DCNB as a substrate, liver cytosol [3] | Increase in NQO activity, liver cytosol [6] | also measured
1 | did not have any apparent effect | did not have any apparent effect | did not have any apparent effect | CC(C)=CCC/C(C)=C/COc1ccc2ccc(=O)oc2c1 [auraptene] |  |  |  | 
2 | increased | increased | increased | CC(C)=CCC/C(C)=C/COc1c2ccoc2cc2oc(=O)ccc12 [bergamottin] | 3–4 fold |  | 2–3 fold | Increase in P450 2B activity (pentoxyresorufin), liver microsomes ([7]; po, 100 mg/kg): ~ 5 fold
3 | did not have any apparent effect | did not have any apparent effect | did not have any apparent effect | O=c1ccc2ccccc2o1 [coumarin, 1,2-benzopyrone] |  | highest increase | 2–3 fold | 
4 |  |  |  | CC(C)=CCOc1c2occc2cc2ccc(=O)oc12 [imperatorin] |  |  |  | Potency at blocking P450 2B activity relative to isopimpinellin [8]: 10–100 times; Hepatic expression of GST π protein, dose-response study [9]: modest increase; GST activity using cumene hydroperoxide as a substrate [10]: no differences; P450 3A activity, liver microsomes, dose-response study ([1]; mouse, in vivo): increased; Hepatic P450 2B9/10 activity at 1 h after the final dose [11]: no elevation; Increase in hepatic P450 2B9/10 activity at 24 h after the final dose [11]: 100 fold; Hepatic expression of GST α protein, dose-response study [12]: greatly increased; P450 1 activity, liver microsomes, dose-response study [13]: significant increases; Hepatic expression of GST μ protein, dose-response study [14]: no increase; P450 1A1/1A2 protein levels, dose-response study [15]: elevated; Liver cytosolic NQO activity, dose-response study ([6]; female SENCAR mice, 35, 70, 150 mg/kg p.o. 4 days): increased at all doses; Increase in P450 2B9/10 enzyme activity, dose-response study [7]: ~ 100 fold; P450 2B activity, liver microsomes, dose-response study [7]: significant increases; Increase in P450 2B9/10 protein expression (optical density), dose-response study [16]: 1.5–2 fold; P450 2B10 protein levels, dose-response study [16]: significantly elevated
5 | did not have any apparent effect | did not have any apparent effect | did not have any apparent effect | COc1cc(OC)c2ccc(=O)oc2c1 [limettin, 5,7-dimethoxycoumarin] |  |  |  | 

Row | SMILES | P450 1A1/1A2 protein expression (western blot densitometry) [2] | P450 3A11 protein expression (western blot densitometry) [4] | P450 2B10 protein expression (western blot densitometry) [5] | Increase in P450 3A activity (testosterone), liver microsomes [1] | GST activity using DCNB as a substrate, liver cytosol [3] | Increase in NQO activity, liver cytosol [6] | also measured
6 | O=c1ccc2ccc3occc3c2o1 [angelicin] | increased |  |  | not statistically significant | highest increase |  | 
